Test results as given in patent US20240368118A1, “CEREBLON BINDING COMPOUNDS, COMPOSITIONS THEREOF, AND METHODS OF TREATMENT THEREWITH” (CELGENE CORPORATION, priority 2021, published 2024).

Biological target: T1, AR (Homo sapiens, UniProt P10275)
T1 construct: endogenous in cells; host or cells: VCaP cells
T1 sequence (P10275 1-920): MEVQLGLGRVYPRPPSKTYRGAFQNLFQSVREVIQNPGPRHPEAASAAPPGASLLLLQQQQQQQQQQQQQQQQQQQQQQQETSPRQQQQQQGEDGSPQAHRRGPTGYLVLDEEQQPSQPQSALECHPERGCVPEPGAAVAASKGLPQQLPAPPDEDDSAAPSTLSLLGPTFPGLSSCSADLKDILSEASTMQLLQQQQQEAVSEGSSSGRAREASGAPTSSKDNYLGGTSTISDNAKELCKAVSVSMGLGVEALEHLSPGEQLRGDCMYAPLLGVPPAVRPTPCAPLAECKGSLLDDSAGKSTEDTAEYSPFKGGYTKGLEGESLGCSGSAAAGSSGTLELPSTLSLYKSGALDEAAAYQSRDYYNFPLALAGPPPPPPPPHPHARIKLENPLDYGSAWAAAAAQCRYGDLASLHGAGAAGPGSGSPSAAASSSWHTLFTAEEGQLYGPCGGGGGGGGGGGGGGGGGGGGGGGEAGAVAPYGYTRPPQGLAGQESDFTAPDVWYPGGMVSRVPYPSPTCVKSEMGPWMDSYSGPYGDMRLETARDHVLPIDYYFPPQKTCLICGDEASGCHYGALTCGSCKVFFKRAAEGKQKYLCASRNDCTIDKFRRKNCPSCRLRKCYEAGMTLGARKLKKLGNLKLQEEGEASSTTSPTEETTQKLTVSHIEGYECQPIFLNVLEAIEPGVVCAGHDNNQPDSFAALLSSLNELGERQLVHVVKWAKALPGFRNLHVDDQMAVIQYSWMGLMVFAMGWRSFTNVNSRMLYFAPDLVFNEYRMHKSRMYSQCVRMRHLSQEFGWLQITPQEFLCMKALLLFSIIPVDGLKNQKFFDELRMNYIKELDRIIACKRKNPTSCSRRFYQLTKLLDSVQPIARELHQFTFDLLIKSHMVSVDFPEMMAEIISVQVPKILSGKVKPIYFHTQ
Assay: VCAP AR Degradation Assay
Type: cell-based
Details: VCaP cells, 24 h; for DC50: AR ELISA, concentration when AR level = 50% of DMSO control; for Ymin: lowest AR level normalized to DMSO control, given as numbers
Outline: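 VCaP cells in DMEM with 8% FBS treated 24 h at 37° C with a 10-point 1:3 series (top 5 μM final; 0.1% DMSO control). Total AR measured in lysates by sandwich ELISA and normalized to DMSO; DC50/EC50 from four-parameter logistic fit, with the lowest normalized AR level reported as Y.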

| Compound | DC50 [nM] | Ymin |
| --- | --- | --- |
| CC1(C)C(=O)N(c2ccc(C#N)c(C(F)(F)F)c2)C(=S)N1[C@H]1CC[C@H](OCCCN2CCN(CC(=O)Nc3ccc(C4CCC(=O)NC4=O)cc3)[C@@H](C(F)(F)F)C2)CC1 (stereo partly drawn) [Cmpd 35, 2-((R)-4-(3-(((trans)-4-(3-(4-Cyano-3-(trifluoromethyl)phenyl)-5,5-dimethyl-4-oxo-2-thioxoimidazolidin-1-yl)cyclohexyl)oxy)propyl)-2-(trifluoromethyl)piperazin-1-yl)-N-(4-(2,6-dioxopiperidin-3-yl)phenyl)acetamide] | ≤ 5 | 21 % of DMSO control |
| CC1(C)C(=O)N(c2ccc(C#N)c(C(F)(F)F)c2)C(=S)N1[C@H]1CC[C@H](CCCN2CCN(CC(=O)Nc3ccc(C4CCC(=O)NC4=O)cc3)[C@@H](C(F)(F)F)C2)CC1 (stereo partly drawn) [Cmpd 36, 2-((R)-4-(3-((trans)-4-(3-(4-Cyano-3-(trifluoromethyl)phenyl)-5,5-dimethyl-4-oxo-2-thioxoimidazolidin-1-yl)cyclohexyl)propyl)-2-(trifluoromethyl)piperazin-1-yl)-N-(4-(2,6-dioxopiperidin-3-yl)phenyl)acetamide] | 15 to 100 | 24 % of DMSO control |
| C[C@@H]1C[C@H](OCCC[C@H]2CC[C@H](N3C(=S)N(c4ccc(C#N)c(C(F)(F)F)c4)C(=O)C3(C)C)CC2)C[C@H](C)N1CC(=O)Nc1ccc(C2CCC(=O)NC2=O)cc1 (stereo partly drawn) [Cmpd 37, 2-((2R,4r,6S)-4-(3-((trans)-4-(3-(4-Cyano-3-(trifluoromethyl)phenyl)-5,5-dimethyl-4-oxo-2-thioxoimidazolidin-1-yl)cyclohexyl)propoxy)-2,6-dimethylpiperidin-1-yl)-N-(4-(2,6-dioxopiperidin-3-yl)phenyl)acetamide] | 15 to 100 | 19 % of DMSO control |
| C[C@@H]1C[C@H](OCCC[C@H]2CC[C@H](N3C(=S)N(c4cnc(C#N)c(C(F)(F)F)c4)C(=O)C3(C)C)CC2)C[C@H](C)N1CC(=O)Nc1ccc(C2CCC(=O)NC2=O)cc1 (stereo partly drawn) [Cmpd 38, 2-((2R,4r,6S)-4-(3-((trans)-4-(3-(6-Cyano-5-(trifluoromethyl)pyridin-3-yl)-5,5-dimethyl-4-oxo-2-thioxoimidazolidin-1-yl)cyclohexyl)propoxy)-2,6-dimethylpiperidin-1-yl)-N-(4-(2,6-dioxopiperidin-3-yl)phenyl)acetamide] | 5 to 15 | 14 % of DMSO control |
| C[C@@H]1C[C@H](OCC[C@H]2CC[C@H](N3C(=S)N(c4cnc(C#N)c(C(F)(F)F)c4)C(=O)C3(C)C)CC2)C[C@H](C)N1CC(=O)Nc1ccc(C2CCC(=O)NC2=O)cc1 (stereo partly drawn) [Cmpd 39, 2-((2R,4r,6S)-4-(2-((trans)-4-(3-(6-Cyano-5-(trifluoromethyl)pyridin-3-yl)-5,5-dimethyl-4-oxo-2-thioxoimidazolidin-1-yl)cyclohexyl)ethoxy)-2,6-dimethylpiperidin-1-yl)-N-(4-(2,6-dioxopiperidin-3-yl)phenyl)acetamide] | ≤ 5 | 14 % of DMSO control |
| C[C@@H]1C[C@H](OCC[C@H]2CC[C@H](N3C(=S)N(c4ccc(C#N)c(C(F)(F)F)c4)C(=O)C3(C)C)CC2)C[C@H](C)N1CC(=O)Nc1ccc(C2CCC(=O)NC2=O)cc1 (stereo partly drawn) [Cmpd 40, 2-((2R,4r,6S)-4-(2-((trans)-4-(3-(4-Cyano-3-(trifluoromethyl)phenyl)-5,5-dimethyl-4-oxo-2-thioxoimidazolidin-1-yl)cyclohexyl)ethoxy)-2,6-dimethylpiperidin-1-yl)-N-(4-(2,6-dioxopiperidin-3-yl)phenyl)acetamide] | 5 to 15 | 21 % of DMSO control |
| C[C@@H]1C[C@H](OCCO[C@H]2CC[C@H](N3C(=S)N(c4cnc(C#N)c(C(F)(F)F)c4)C(=O)C3(C)C)CC2)C[C@H](C)N1CC(=O)Nc1ccc(C2CCC(=O)NC2=O)cc1 (stereo partly drawn) [Cmpd 41, 2-((2R,4r,6S)-4-(2-(((trans)-4-(3-(6-Cyano-5-(trifluoromethyl)pyridin-3-yl)-5,5-dimethyl-4-oxo-2-thioxoimidazolidin-1-yl)cyclohexyl)oxy)ethoxy)-2,6-dimethylpiperidin-1-yl)-N-(4-(2,6-dioxopiperidin-3-yl)phenyl)acetamide] | ≤ 5 | 17 % of DMSO control |
| C[C@@H]1C[C@H](OCCO[C@H]2CC[C@H](N3C(=S)N(c4ccc(C#N)c(C(F)(F)F)c4)C(=O)C3(C)C)CC2)C[C@H](C)N1CC(=O)Nc1ccc(C2CCC(=O)NC2=O)cc1 (stereo partly drawn) [Cmpd 42, 2-((2R,4r,6S)-4-(2-(((trans)-4-(3-(4-Cyano-3-(trifluoromethyl)phenyl)-5,5-dimethyl-4-oxo-2-thioxoimidazolidin-1-yl)cyclohexyl)oxy)ethoxy)-2,6-dimethylpiperidin-1-yl)-N-(4-(2,6-dioxopiperidin-3-yl)phenyl)acetamide] | 5 to 15 | 19 % of DMSO control |
| CC1(C)C(=O)N(c2ccc(C#N)c(C(F)(F)F)c2)C(=S)N1[C@H]1CC[C@H](OCCC2CCN(CC(=O)Nc3ccc(C4CCC(=O)NC4=O)cc3)CC2(F)F)CC1 (stereo partly drawn) [Cmpd 43, 2-(4-(2-(((trans)-4-(3-(4-Cyano-3-(trifluoromethyl)phenyl)-5,5-dimethyl-4-oxo-2-thioxoimidazolidin-1-yl)cyclohexyl)oxy)ethyl)-3,3-difluoropiperidin-1-yl)-N-(4-(2,6-dioxopiperidin-3-yl)phenyl)acetamide] | ≤ 5 | 18 % of DMSO control |
| CC1(C)C(=O)N(c2cnc(C#N)c(C(F)(F)F)c2)C(=S)N1[C@H]1CC[C@H](OCCC2CCN(CC(=O)Nc3ccc(C4CCC(=O)NC4=O)cc3)CC2(F)F)CC1 (stereo partly drawn) [Cmpd 44, 2-(4-(2-(((trans)-4-(3-(6-Cyano-5-(trifluoromethyl)pyridin-3-yl)-5,5-dimethyl-4-oxo-2-thioxoimidazolidin-1-yl)cyclohexyl)oxy)ethyl)-3,3-difluoropiperidin-1-yl)-N-(4-(2,6-dioxopiperidin-3-yl)phenyl)acetamide] | ≤ 5 | 12 % of DMSO control |
